Measured values taken from patent publication US10570104B2, “Metabolically programmed metal chelators and uses thereof” (University of Florida Research Foundation, Incorporated, priority 2015, dated 2020).
“Also recorded” adds a separate entry of the source. Where two headings read alike, the source gives them in different places.

What was measured:
[1] = cited from earlier work
[2] = rats; cited from earlier work
[3] = log Papp, octanol/TRIS buffer pH 7.4, shake flask direct method; type: physicochemical; conditions: not told
Source text: The redesign of 2 was predicated on the observation that both ligands 2 and 3 were orally active iron chelators in rodents and primates (Table 1), and that when the 4′-(OH) of 2 was methylated, providing (S)-4,5-dihydro-2-(2-hydroxy-4-methoxyphenyl)-4-methyl-4-thiazolecarboxylic acid^43 [(S)-4′-(CH3O)-DADFT, 4], there was a remarkable enhancement in both ICE and lipophilicity (log Papp). The log Papp data are expressed as the log of the fraction of the chelator seen in the octanol layer; measurements were done in TRIS buffer, pH 7.4, using a “shake flask” direct method.^49 The more negative the log Papp, the less chelator is in the octanol phase, the less lipophilic. Unfortunately, the increase in ICE of 4 came with a concomitant increase in toxicity.^50 Thus, the delicate balance between the increase in ICE and toxicity with enhanced lipophilicity needed to be understood and exploited.

[4] = cited from earlier work; remark: listed apart in the source
[5] = 2:1 complex with Fe(III), cited from earlier work
[6] = for Rat ICE (%): 300 μmol/kg, monosodium salt
Description: Sample collection and handling are as previously described.^38,40
Drug Preparation and Administration. In the iron clearing experiments, the rats were given 8-14 orally at a dose of 300 μmol/kg. […] The chelators were administered as their monosodium salts (prepared by the addition of 1 equiv of NaOH to a suspension of the free acid in distilled water).
Calculation of Chelator Iron Clearing Efficiency (ICE). The term “ICE” is used as a measure of the amount of iron excretion induced by a chelator. The ICE, expressed as a percent, is calculated as (ligand-induced iron excretion/theoretical iron excretion)×100. […] The theoretical iron outputs of the chelators were generated on the basis of a 2:1 ligand:iron complex. The efficiencies in the rats and monkeys were calculated as set forth elsewhere.^37 Data are presented as the mean±the standard error of the mean; p-values were generated via a one-tailed Student's t-test in which the inequality of variances was assumed, and a p-value of <0.05 was considered significant.

[7] = Chelator-induced iron clearance (ICE) in iron-overloaded Cebus apella primates; type: in vivo, Cebus apella monkeys; conditions: 75 μmol/kg, monosodium salt
Description: Iron Loading of Cebus apella Monkeys. The monkeys (3.5-6.5 kg) were iron overloaded with intravenous iron dextran as specified in earlier publications to provide about 500 mg of iron per kg of body weight; the serum transferrin iron saturation rose to between 70 and 80%.^38,40 At least 20 half-lives, 60 days, elapsed before any of the animals were used in experiments evaluating iron-chelating agents.
Primate Fecal and Urine Samples. Fecal and urine samples were collected at 24 hours intervals and processed as described previously^38,40,74 Briefly, the collections began 4 days prior to the administration of the test drug and continued for an additional 5 days after the drug was given. Iron concentrations were determined by flame absorption spectroscopy as presented in other publications.^38′^40
Drug Preparation and Administration.
Calculation of Chelator Iron Clearing Efficiency (ICE).

[8] = Tissue distribution/metabolism of chelators in rats given sc (HPLC); type: in vivo, Sprague-Dawley rats; conditions: for metabolism of 7 to 8 and 9 in tissues: sc 7, HPLC of tissues
[9] = as above; type: in vivo, Sprague-Dawley rats
Description: Collection of Chelator Tissue Distribution Samples from Rodents. Male Sprague-Dawley rats (250-350 g) were given a single subcutaneously injection of the monosodium salts of 8 and 11 prepared as described above at a dose of […]. At times 0.5, 1, 2, 4 and 8 hours after dosing (n=3 rats per time point), the animals were euthanized by exposure to CO2 gas. Blood was obtained via cardiac puncture into vacutainers containing sodium citrate. The blood was centrifuged, and the plasma was separated for analysis. The liver, kidney, heart, and pancreas were removed from the animals and frozen.
Tissue Analytical Methods. Tissue samples of animals treated with 8 were prepared for HPLC analysis by homogenizing them in H2O at a ratio of 1:1 (w/v). Then, as a rinse, CH3OH at a ratio of 1:3 (w/v) was added, and the mixture was stored at −20° C. for 30 min. This homogenate was centrifuged. The supernatant was diluted with H2O, vortexed, and filtered with a 0.2 μm membrane. Analytical separation was performed on a Supelco Discovery RP Amide C16 HPLC system with UV detection at 310 nm as described previously.^44,75 Mobile phase and chromatographic conditions were as follows: solvent A, 5% CH3CN/95% buffer (25 mM KH2PO4+2.5 mM 1-octanesulfonic acid, pH 3.0); solvent B, 60% CH3CN/40% buffer.
Tissue samples of animals treated with 11 were prepared for HPLC analysis by homogenizing them in 0.5 N HClO4 at a ratio of 1:3 (w/v). Then, as a rinse, CH3OH at a ratio of 1:3 (w/v) was added, and the mixture was stored at −20° C. for 30 min. This homogenate was centrifuged. The supernatant was diluted with 95% buffer (25 mM KH2PO4, pH 3.0)/5% CH3CN, vortexed, and filtered with a 0.2 μm membrane. Analytical separation was performed on a Supelco Ascentis Express RP-Amide HPLC system with UV detection at 310 nm as described previously. Mobile phase and chromatographic conditions were as for 8.
Ligand concentrations were calculated from the peak area fitted to calibration curves by nonweighted least-squares linear regression with Shimadzu Class-VP 7.4 software.

[10] = rats, sc, 300 mol/kg (so in the source); liver; 2 hours post drug; cited from earlier work
[11] = even when administered b.i.d.; cited from earlier work
[12] = 10-day toxicity trial of (S)-4′-(HO)-DADFT-HXA (11) in rats
Description: Note that this dose is equivalent to 100 mg/kg/day of DFT (1) as its sodium salt. The rats were housed in individual metabolic cages and were weighed each day. […] The rats were fasted overnight and were given the chelator first thing in the morning. […] The animals were euthanized one day post drug (day 11). […] Additional age-matched rats served as untreated controls for the CBC and serum chemistries and histopathology. No urine was collected from these animals. The studies were performed on rats with normal iron stores.
Aten-day toxicity trial of 11 was carried out in male Sprague-Dawley rats. The animals were housed in individual metabolic cages. […] Note that this dose is equivalent to 100 mg/kg/day of DFT (1) as its sodium salt. Urine was collected from the metabolic cages at 24-hour intervals and assessed for its Kim-1 content. The studies were performed on rats with normal iron stores; each animal served as its own control. Additional age-matched rats served as untreated controls for the CBC and serum chemistry assessments and histopathology.

[13] = cited from earlier work; remark: listed apart in the source
[14] = rats, cited from earlier work
[15] = rats; cited from earlier work; remark: listed apart in the source
[16] = treated rats, one day post drug, 384 μmol/kg/day po x 10 days
[17] = po, 300 μmol/kg, 48 hour sample collection period, historical

## C[C@]1(C(=O)O)CSC(c2ncccc2O)=N1 [Compound 1, (S)-4,5-dihydro-2-(3-hydroxy-2-pyridinyl)-4-methyl-4-thiazolecarboxylic acid]
[1]; po, 150 μmol/kg
  Rodent ICE (%): 5.5±3.2%
[2]
  nephrotoxicity: severe nephrotoxicity; also recorded: unacceptable renal toxicity
[3]
  Log Papp: −1.77
[4]; po, 150 μmol/kg, historical
  Primate ICE (%): 16.1±8.5%
[5]
  cumulative formation constant: 4e+29 M⁻¹
[5]; unit not given
  cumulative formation constant: 4×10^29

## C[C@]1(C(=O)O)CSC(c2ccc(OCCOCC(=O)O)cc2O)=N1 [Compound 9, (S)-4,5-dihydro-2-[2-hydroxy-4-(4-carboxy-3-oxabutyloxy)phenyl]-4-methyl-4-thiazolecarboxylic acid]
[6]; po
  Rat ICE (%): 6.2 ± 1.7%
[6]; sc
  Rat ICE (%): 11.3 ± 3.4%
[3]
  Log Papp: −1.63
[7]; po
  Cebus ICE (%): 1.7±1.4%
[7]; sc
  Cebus ICE (%): 17.4±9.7%
[8]
  metabolism of 7 to 8 and 9 in tissues: not detected
[9]; sc 8, 300 μmol/kg, liver, 1 hour
  share of drug (parent+metabolite): 59%
[9]; sc 8, 300 μmol/kg, liver, 8 hours
  detection in liver: no metabolite 9 remains
[9]; sc 8, 300 μmol/kg, plasma, 2 hour post dosing
  share of drug (parent+metabolite): 88%
[9]; sc 8, 300 μmol/kg, plasma, 8 hour
  detection in plasma: Neither the parent 8 nor the metabolite 9 was found at the 8 hour time point

## COCCOCCOCCOc1ccc(C2=N[C@@](C)(C(=O)O)CS2)c(O)c1 [Compound 5, (S)-4,5-dihydro-2-[2-hydroxy-4-(3,6,9-trioxadecyloxy)phenyl]-4-methyl-4-thiazolecarboxylic acid]
[1]; po, 300 μmol/kg, historical
  Rodent ICE (%): 5.5 ± 1.9%
[3]
  Log Papp: −1.10
[10]
  proportion of administered compound cleaved to its hydroxy metabolite (2 or 3): 2%
[4]; po, 150 μmol/kg, historical
  Primate ICE (%): 25.4 ± 7.4%
[11]
  renal toxicity: no renal toxicity

## C[C@]1(C(=O)O)CSC(c2ccc(OCCCCCCO)cc2O)=N1 [Compound 11, (S)-4,5-dihydro-2-[2-hydroxy-4-(6-hydroxyhexyloxy)phenyl]-4-methyl-4-thiazolecarboxylic acid]
[6]; po
  Rat ICE (%): 9.9 ± 0.8%
[6]; rats, po
  oral absorption: well absorbed
[6]; rats, po 300 μmol/kg, single dose
  overt toxicity: did not present with any overt toxicity; also recorded: did not display any overt toxicity; also recorded: did not elicit any signs of overt toxicity
[3]
  Log Papp: 0.21
[7]; po
  Cebus ICE (%): 21.9±3.6%
[9]; sc 11, 300 μmol/kg
  conversion of 11 to 12-14: Significant conversion of 11→12-14 was found in all of the tissues examined; also recorded: quickly converted to the corresponding hydrophilic metabolites; also recorded: quickly converted to the corresponding hydrophilic acids 12, 13, and 14; also recorded: very quickly converted to the corresponding acid (12)
[9]; sc 11, heart, 0.5 hour
  tissue concentration: 26 nmol/g wet weight
[9]; sc 11, kidney
  detection in kidney: trace amounts 0.5 hour post drug
[9]; sc 11, liver
  detection in liver: not found in the liver at any of the time points
[9]; sc 11, pancreas, 0.5 hour
  tissue concentration: < 5 nmol/g wet weight
[9]; sc 11, plasma
  detection in plasma: no longer detectable
[9]; sc 11, plasma, 0.5 hour
  share of total (parent+metabolites): 22%
[12]; baseline and not exceeded during the 10-day exposure, 384 μmol/kg/day po
  urinary Kim-1 excretion: < 20 ng/kg/24 hours
[12]; extensive tissues (25/rat), 384 μmol/kg/day po x 10 days
  histopathology: did not identify any drug-related abnormalities
[12]; rats, po once daily for 10 days, 384 μmol/kg/day
  survival / overall toxicity: All of the rats treated with 11 survived the exposure to the drug; also recorded: lack of toxicity
[12]; [16]
  BUN: 20 ± 4 mg/dL
  SCr: 0.5 ± 0.1 mg/dL

## COc1ccc(C2=N[C@@](C)(C(=O)O)CS2)c(O)c1 [Compound 4, (S)-4,5-dihydro-2-(2-hydroxy-4-methoxyphenyl)-4-methyl-4-thiazolecarboxylic acid]
[1]; po, 300 μmol/kg, historical
  Rodent ICE (%): 6.6 ± 2.8%
[3]
  Log Papp: −0.70
[10]
  proportion of administered compound cleaved to its hydroxy metabolite (2 or 3): about 30%
[4]; po, 150 μmol/kg, historical
  Primate ICE (%): 24.4 ± 10.8%

## C[C@]1(C(=O)O)CSC(c2ccc(O)cc2O)=N1 [Compound 2, (S)-2-(2,4-dihydroxyphenyl)-4,5-dihydro-4-methyl-4-thiazolecarboxylic acid]
[1]; po, 300 μmol/kg, historical
  Rodent ICE (%): 1.1±0.8%
[3]
  Log Papp: −1.05
[4]; po, 150 μmol/kg, historical
  Primate ICE (%): 16.8±7.2%
[13]; 5, 10, or 15 mg/kg/day once daily for up to 12 weeks
  tolerability in patients: well tolerated
[13]; twice daily 12.5 mg/kg (25 mg/kg/d), three patients after 4-5 weeks
  renal toxicity in patients: unacceptable renal toxicity

## COCCOCCOc1ccc(C2=N[C@@](C)(C(=O)O)CS2)c(O)c1 [Compound 7, (S)-4,5-dihydro-2-[2-hydroxy-4-(3,6-dioxaheptyloxy)phenyl]-4-methyl-4-thiazolecarboxylic acid]
[1]; [17]
  Rodent ICE (%): 26.7 ± 4.7%
[3]
  Log Papp: −0.89
[4]; po, 75 μmol/kg, as monosodium salt, historical
  Primate ICE (%): 28.7±12.4%
[4]; po, 75 μmol/kg, in capsules, historical
  Primate ICE (%): 26.3 ± 9.9%
[14]; extensive tissues
  histopathology: no drug-related abnormalities were identified
[14]; po s.i.d. 28 d (56.9-170.7 μmol/kg/day), s.i.d. 10 d (384 μmol/kg/d), b.i.d. 7 d (474 μmol/kg/d)
  CBC and serum chemistries: No drug-related abnormalities were found
[14]; same regimens
  BUN and SCr levels: within the normal range
[14]; up to 28 days
  urinary Kim-1 excretion: did not elicit any increases in urinary Kim-1 excretion
[8]; sc 7
  cleavage of 7 to 2: no cleavage to 2; also recorded: does not sustain metabolic cleavage at the 4′-(HO) to yield 2
[8]
  metabolism of 7 to 8 and 9 in tissues: cleavage of the terminal methyl of 7 to the corresponding alcohol 8 did occur
[9]; sc 7, plasma, 0.5 hour
  share of total drug concentration: 95%

## COCCOCCOCCOc1cccc(C2=N[C@@](C)(C(=O)O)CS2)c1O [Compound 6, (S)-4,5-dihydro-2-[2-hydroxy-3-(3,6,9-trioxadecyloxy)phenyl]-4-methyl-4-thiazolecarboxylic acid]
[1]; po, 150 μmol/kg, compound 6 dose response
  ICE: 18.7±2.9%
[1]; po, 150 μmol/kg
  iron decorporated: 0.782 ± 0.121 mg/kg
[1]; [17]
  Rodent ICE (%): 10.6±4.4%
[1]; po, 300 μmol/kg
  quantity of iron excreted: 0.887 ± 0.367 mg/kg
[3]
  Log Papp: −1.22
[10]
  proportion of administered compound cleaved to its hydroxy metabolite (2 or 3): 2.6%
[4]; po, 150 μmol/kg, historical
  Primate ICE (%): 23.0 ± 4.1%
[11]
  renal toxicity: no renal toxicity

## CC(=O)N(O)CCCCCNC(=O)CCC(=O)N(O)CCCCCNC(=O)CCC(=O)N(O)CCCCCN [DFO, desferrioxamine B]
[1]; sc, 150 μmol/kg
  Rodent ICE (%): 2.5 ± 0.7%
[4]; sc, 150 μmol/kg
  Primate ICE (%): 5.5 ± 0.9%
[15]
  effect on colitis: prevent acetic acid-induced colitis
